Measured values: BindingDB's records for doi:10.1021/jm9708341 (University of Leipzig, 1998)

Biological target: T1, Neutrophil elastase (Homo sapiens, UniProt P08246)
T1 sequence (P08246 whole entry): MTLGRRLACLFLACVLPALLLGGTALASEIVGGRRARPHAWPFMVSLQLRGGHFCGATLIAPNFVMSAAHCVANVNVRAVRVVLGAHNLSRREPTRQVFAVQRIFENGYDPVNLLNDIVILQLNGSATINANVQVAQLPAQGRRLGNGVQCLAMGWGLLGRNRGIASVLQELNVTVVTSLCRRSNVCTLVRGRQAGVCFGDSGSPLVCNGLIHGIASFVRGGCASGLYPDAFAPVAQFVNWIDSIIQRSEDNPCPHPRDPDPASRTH
Experiment: Steady state inhibition constant for Human Leukocyte Elastase inhibition
Details: for kon: read-out: kon (M-1-s-1)

Cc1sc2nc(NC(C)C)oc(=O)c2c1C [2-Isopropylamino-5,6-dimethyl-thieno[2,3-d][1,3]oxazin-4-one]
koff: 8.5e-05 s⁻¹ | kon: 1130 M⁻¹ s⁻¹

CSc1nc2sc3c(c2c(=O)o1)CCCC3 [2-Methylsulfanyl-5,6,7,8-tetrahydro-benzo[4,5]thieno[2,3-d][1,3]oxazin-4-one]
koff: 0.00156 s⁻¹ | kon: 272000 M⁻¹ s⁻¹

COC(=O)CSc1nc2sc(C)c(C)c2c(=O)o1 [(5,6-Dimethyl-4-oxo-4H-thieno[2,3-d][1,3]oxazin-2-ylsulfanyl)-acetic acid methyl ester]
koff: 0.000163 s⁻¹ | kon: 685 M⁻¹ s⁻¹
